Measured values reported in publication PMC3705364, “Biochemical and Electrophysiological Characterization of Two Sea Anemone Type 1 Potassium Toxins from a Geographically Distant Population of Bunodosoma caissarum” (Marine Drugs, 2013).
Where a SMILES comes first, the peptide text is derived from it. Bridges are numbered along the chain shown (N, C = ends).

What was measured:
rKV1.1 = target: T1, rKV1.1 (Rattus norvegicus, UniProt P10499); assay: Two-electrode voltage-clamp, X. laevis oocytes expressing rKV1.1; type: cell-based; details: mean ± standard error
T1 construct: expressed in transfected cells; host or cells: Xenopus laevis oocytes injected with cRNA
Description: (§1) Stage V–VI of X. laevis oocytes were harvested by partial ovariectomy under anesthesia (3-aminobenzoic acid ethyl ester methanesulfonate salt, 0.5 g/L from Sigma-Aldrich Co., Saint Louis, MO, USA). The oocytes were defolliculated for 2 h by treatment with 2 mg/mL collagenase (Sigma-Aldrich Co., Saint Louis, MO, USA) in Ca^2+ free ND96 solution (in mM: 96 NaCl; 2 KCl; 1 MgCl2; 5 HEPES adjusted pH 7.4). For the expression of KV channels (KV1.1–KV1.6, KV2.1, KV3.1, KV4.2, KV4.3, hERG and the insect channel Shaker IR), the linearized plasmids were transcribed using the T7 or SP6 mMessage-mMachine transcription kit (Ambion, Austin, TX, USA). Oocytes were injected with 50 nL of cRNA at a concentration of 1 ng/nL using a microinjector (Drummond Scientific, Broomall, PA, USA). The oocytes were maintained in a ND96 solution (in mM: 96 NaCl, 2 KCl, 1.8 CaCl2, 2 MgCl2 and 5 HEPES; adjusted pH 7.4), supplemented with 50 µg/mL gentamicin sulfate.
(§2) Two-electrode voltage-clamp recordings were performed at room temperature (18–22 °C) using a Geneclamp 500 amplifier (Molecular Devices, Sunnyvale, CA, USA) controlled by a pClamp data acquisition system (Axon Instruments, Union City, CA, USA). Whole-cell currents from oocytes were recorded from 1 to 3 days after injection. Bath solution was the same ND96 solution described above. Voltage and current electrodes were filled with 3 M KCl. Resistances of both electrodes were kept between 0.8 and 1.0 ΩM. The elicited currents were filtered at 500 Hz using a four-pole lowpass Bessel filter. Leak subtraction was performed using a −P/4 protocol. KV1.1–KV1.6 and Shaker IR currents were evoked by 500 ms depolarizations to 0 mV, followed by a 500 ms pulse to −50 mV, from a holding potential of −90 mV. Current traces of hERG channels were elicited by applying a +40 mV prepulse for 2 s, followed by a step to −120 mV for 2 s. KV3.1, KV 4.2 and KV4.3 currents were elicited by 500 ms pulses to +20 mV from a holding potential of −90 mV. To assess the concentration-response relationships, data were fitted with the Hill equation: y = 100/[1 + (EC50/[toxin])h] (1) where y is the amplitude of the toxin-induced effect, EC50 is the toxin concentration at half maximal efficacy, [toxin] is the toxin concentration and h is the Hill coefficient. In order to investigate the current-voltage relationship, current traces were evoked by 10 mV depolarization steps from a holding potential of −90 mV. […]
(§3) Comparison of two sample means was made using a paired Student’s t test (p < 0.05). […] All data were analyzed using Clampfit 10.3 (Molecular Devices, Sunnyvale, CA, USA) and Origin 7.5 software (Origin Lab., Northampton, MA, USA).

hKV1.3 [1] = target: T2, hKV1.3 (Homo sapiens, UniProt P22001); assay: Two-electrode voltage-clamp, X. laevis oocytes expressing hKV1.3; type: cell-based; design: expressed in transfected cells; host or cells: Xenopus laevis oocytes injected with cRNA
Description: as §1, §2, §3

Shaker IR = target: T3, Shaker IR (Drosophila melanogaster, UniProt P08510, DEL6-46); assay: Two-electrode voltage-clamp, X. laevis oocytes expressing Shaker IR; type: cell-based, insect; details: mean ± standard error
T3 construct: expressed in transfected cells; host or cells: Xenopus laevis oocytes injected with cRNA
Description: as §1, §2, §3

[2] = tested on: KV1.1–KV1.6, KV2.1, KV3.1, KV4.2, KV4.3, hERG and Shaker IR; assay: Electrophysiological screening on 12 cloned KV channel isoforms in X. laevis oocytes; type: cell-based, rat, human, insect
Description: The pharmacological profile of BcsTx-1 and -2 were determined on a wide range of twelve KV channels (rKV1.1, rKV1.2, hKV1.3, rKV1.4, rKV1.5, rKV1.6, rKV2.1, rKV3.1, rKV4.2, rKV4.3, hERG and the insect channel Shaker IR; r: rat and h: human). Channels were expressed in X. laevis oocytes, and their currents were recorded by using two-electrode voltage-clamp technique. BcsTx1 (0.5 µM) inhibited rKv1.1, rKv1.2, rKv1.3, rKv1.6 and Shaker IR channels with 44% ± 2%, 100%, 100%, 88% ± 3% and 64% ± 4%, respectively (Figure 6). […] Type 1 toxins, such as BgK and ShK, have been extensively characterized. […] Some of the other type 1 toxins were indirectly assayed by competitive inhibition of the binding of ^125I-dendrotoxins, allowing the conclusion that they will show activity on KV1.1, KV1.2 and/or KV1.6, since dendrotoxins only block the current of these KV channels. […] Thus, it is worth mentioning that our work represents the first electrophysiological characterization of type 1 sea anemone toxin activity on cloned Shaker IR insect channel.
as §1
Two-electrode voltage-clamp recordings were performed at room temperature (18–22 °C) using a Geneclamp 500 amplifier (Molecular Devices, Sunnyvale, CA, USA) controlled by a pClamp data acquisition system (Axon Instruments, Union City, CA, USA). Whole-cell currents from oocytes were recorded from 1 to 3 days after injection. Bath solution was the same ND96 solution described above. Voltage and current electrodes were filled with 3 M KCl. Resistances of both electrodes were kept between 0.8 and 1.0 ΩM. The elicited currents were filtered at 500 Hz using a four-pole lowpass Bessel filter. Leak subtraction was performed using a −P/4 protocol. KV1.1–KV1.6 and Shaker IR currents were evoked by 500 ms depolarizations to 0 mV, followed by a 500 ms pulse to −50 mV, from a holding potential of −90 mV. Current traces of hERG channels were elicited by applying a +40 mV prepulse for 2 s, followed by a step to −120 mV for 2 s. KV3.1, KV 4.2 and KV4.3 currents were elicited by 500 ms pulses to +20 mV from a holding potential of −90 mV. To assess the concentration-response relationships, data were fitted with the Hill equation: y = 100/[1 + (EC50/[toxin])h] (1) where y is the amplitude of the toxin-induced effect, EC50 is the toxin concentration at half maximal efficacy, [toxin] is the toxin concentration and h is the Hill coefficient. In order to investigate the current-voltage relationship, current traces were evoked by 10 mV depolarization steps from a holding potential of −90 mV. The activation curves were fitted with a Boltzmann relationship of the form: 1/(1 + e^[−(V − V^1/2)/^S^]) (2) where V1/2 is the voltage for half-maximal activation and s is the slope factor. The activation kinetics were obtained by mono-exponential fits to the raw current traces.

rKV1.2 = target: T4, rKV1.2 (Rattus norvegicus, UniProt P63142); assay: Two-electrode voltage-clamp, X. laevis oocytes expressing rKV1.2; type: cell-based
T4 construct: expressed in transfected cells; host or cells: Xenopus laevis oocytes injected with cRNA
Description: as §1, §2, §3

rKV1.6 = target: T5, rKV1.6 (Rattus norvegicus, UniProt P17659); assay: Two-electrode voltage-clamp, X. laevis oocytes expressing rKV1.6; type: cell-based; details: mean ± standard error
T5 construct: expressed in transfected cells; host or cells: Xenopus laevis oocytes injected with cRNA
Description: as §1, §2, §3

KV3.2 channels = details: cited from earlier work
[3] = tested on: intermediate conductance K (Ca) channels; details: cited from earlier work
KV1.1-4 and KV1.6 = details: cited from earlier work
Description: (§4) The pharmacological profile of BcsTx-1 and -2 were determined on a wide range of twelve KV channels (rKV1.1, rKV1.2, hKV1.3, rKV1.4, rKV1.5, rKV1.6, rKV2.1, rKV3.1, rKV4.2, rKV4.3, hERG and the insect channel Shaker IR; r: rat and h: human). Channels were expressed in X. laevis oocytes, and their currents were recorded by using two-electrode voltage-clamp technique. BcsTx1 (0.5 µM) inh ...

KV1.3 channels = details: cited from earlier work
Description: as §4

hKV1.3 [4] = target: T2, hKV1.3
rKV1.1 (rat) [5] = target: rKV1.1 (rat) (UniProt P10499)
rKV1.2 (rat) [6] = target: rKV1.2 (rat) (UniProt P63142)
Shaker IR (insect) [7] = target: Shaker IR (insect) (UniProt P08510)
rKV1.6 (rat) [8] = target: rKV1.6 (rat) (UniProt P17659)
hKV1.3 [9] = target: T2, hKV1.3; remark: listed apart in the source
rKV1.1 (rat) [10] = target: rKV1.1 (rat) (UniProt P10499); remark: listed apart in the source
rKV1.2 (rat) [11] = target: rKV1.2 (rat) (UniProt P63142); remark: listed apart in the source
Shaker IR (insect) [12] = target: Shaker IR (insect) (UniProt P08510); remark: listed apart in the source
rKV1.6 (rat) [13] = target: rKV1.6 (rat) (UniProt P17659); remark: listed apart in the source
[14] = TEVC, 18–22 °C, ND96 pH 7.4, 500 ms depolarizations to 0 mV from −90 mV, Hill fit, n ≥ 3
[15] = TEVC, 18–22 °C, ND96 pH 7.4, 500 ms depolarizations to 0 mV from −90 mV, Hill fit, mean ± standard error, n ≥ 3

T2 sequence (P22001 whole entry): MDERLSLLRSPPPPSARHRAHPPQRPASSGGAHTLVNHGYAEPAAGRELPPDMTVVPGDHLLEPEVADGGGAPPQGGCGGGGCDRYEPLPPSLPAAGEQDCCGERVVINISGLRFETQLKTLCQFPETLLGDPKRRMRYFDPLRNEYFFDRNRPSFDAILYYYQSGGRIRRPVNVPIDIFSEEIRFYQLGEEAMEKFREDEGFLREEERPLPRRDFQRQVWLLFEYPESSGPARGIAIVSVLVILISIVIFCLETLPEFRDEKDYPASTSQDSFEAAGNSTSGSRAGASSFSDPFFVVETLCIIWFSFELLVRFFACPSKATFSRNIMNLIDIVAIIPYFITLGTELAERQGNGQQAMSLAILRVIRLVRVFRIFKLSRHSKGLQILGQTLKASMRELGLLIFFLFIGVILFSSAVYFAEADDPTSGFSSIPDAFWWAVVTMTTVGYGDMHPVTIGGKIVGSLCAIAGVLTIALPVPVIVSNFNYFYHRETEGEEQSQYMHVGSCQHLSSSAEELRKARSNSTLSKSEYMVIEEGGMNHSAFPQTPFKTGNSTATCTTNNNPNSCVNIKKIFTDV
T4 sequence (P63142 whole entry): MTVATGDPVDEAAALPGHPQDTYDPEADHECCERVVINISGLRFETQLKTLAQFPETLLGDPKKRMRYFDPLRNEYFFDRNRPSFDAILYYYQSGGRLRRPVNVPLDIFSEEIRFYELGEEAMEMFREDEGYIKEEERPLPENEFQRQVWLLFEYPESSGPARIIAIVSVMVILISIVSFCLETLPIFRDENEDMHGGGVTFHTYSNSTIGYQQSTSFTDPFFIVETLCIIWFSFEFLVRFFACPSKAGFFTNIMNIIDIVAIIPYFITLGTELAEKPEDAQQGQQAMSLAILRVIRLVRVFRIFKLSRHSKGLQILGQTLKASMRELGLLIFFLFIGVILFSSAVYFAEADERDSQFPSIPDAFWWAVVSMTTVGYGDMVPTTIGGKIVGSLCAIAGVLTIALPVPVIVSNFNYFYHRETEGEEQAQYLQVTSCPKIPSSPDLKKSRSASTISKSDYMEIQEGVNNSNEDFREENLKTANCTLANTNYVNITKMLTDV
rKV1.2 (rat), sequence (P63142 whole entry): as above
rKV1.1 (rat), sequence (P10499 whole entry): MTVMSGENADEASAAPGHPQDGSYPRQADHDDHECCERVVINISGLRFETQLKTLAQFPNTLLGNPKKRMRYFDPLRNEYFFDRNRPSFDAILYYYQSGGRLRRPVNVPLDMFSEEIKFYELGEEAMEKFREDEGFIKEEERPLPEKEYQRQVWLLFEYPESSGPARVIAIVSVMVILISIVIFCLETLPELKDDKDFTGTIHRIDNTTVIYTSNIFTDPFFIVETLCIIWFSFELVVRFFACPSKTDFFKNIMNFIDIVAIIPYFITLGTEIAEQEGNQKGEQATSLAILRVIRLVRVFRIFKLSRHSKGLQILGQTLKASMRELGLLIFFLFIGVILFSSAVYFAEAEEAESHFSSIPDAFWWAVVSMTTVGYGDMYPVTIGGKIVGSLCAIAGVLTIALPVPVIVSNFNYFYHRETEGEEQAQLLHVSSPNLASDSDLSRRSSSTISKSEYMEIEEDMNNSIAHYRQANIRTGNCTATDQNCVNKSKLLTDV
T1 sequence (P10499 whole entry): as above
T3 sequence (P08510 with tags, fused parts or gaps DEL6-46): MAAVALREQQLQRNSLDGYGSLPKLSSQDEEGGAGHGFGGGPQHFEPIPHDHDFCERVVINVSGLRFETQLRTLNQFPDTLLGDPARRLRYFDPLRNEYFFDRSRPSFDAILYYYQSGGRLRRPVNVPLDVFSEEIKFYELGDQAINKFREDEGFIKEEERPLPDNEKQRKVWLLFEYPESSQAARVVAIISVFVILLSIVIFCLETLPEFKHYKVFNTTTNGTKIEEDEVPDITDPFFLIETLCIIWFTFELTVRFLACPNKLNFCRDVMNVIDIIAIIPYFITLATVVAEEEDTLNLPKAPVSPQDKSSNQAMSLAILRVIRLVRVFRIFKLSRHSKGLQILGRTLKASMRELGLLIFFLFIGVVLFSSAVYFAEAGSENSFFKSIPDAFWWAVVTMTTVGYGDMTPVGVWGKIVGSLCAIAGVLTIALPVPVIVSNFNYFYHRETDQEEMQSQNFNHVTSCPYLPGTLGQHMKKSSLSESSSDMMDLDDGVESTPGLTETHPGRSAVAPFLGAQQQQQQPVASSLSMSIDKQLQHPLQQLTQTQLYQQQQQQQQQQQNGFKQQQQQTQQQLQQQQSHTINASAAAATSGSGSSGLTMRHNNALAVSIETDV
rKV1.6 (rat), sequence (P17659 whole entry): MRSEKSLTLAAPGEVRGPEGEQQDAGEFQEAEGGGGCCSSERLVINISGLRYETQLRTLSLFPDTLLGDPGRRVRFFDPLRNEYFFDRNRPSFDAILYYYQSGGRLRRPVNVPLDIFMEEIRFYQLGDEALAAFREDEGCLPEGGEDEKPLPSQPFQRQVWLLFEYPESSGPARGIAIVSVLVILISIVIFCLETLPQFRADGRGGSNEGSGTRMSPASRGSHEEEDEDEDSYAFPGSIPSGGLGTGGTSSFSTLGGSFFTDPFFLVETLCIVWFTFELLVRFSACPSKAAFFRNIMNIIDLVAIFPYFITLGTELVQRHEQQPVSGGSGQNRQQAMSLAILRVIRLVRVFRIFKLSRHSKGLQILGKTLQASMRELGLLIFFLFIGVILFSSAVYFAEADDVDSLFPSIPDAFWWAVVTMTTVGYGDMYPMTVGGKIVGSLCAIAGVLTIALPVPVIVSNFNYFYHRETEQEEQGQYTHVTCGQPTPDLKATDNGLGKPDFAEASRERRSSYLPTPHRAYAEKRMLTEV
T5 sequence (P17659 whole entry): as above
Shaker IR (insect), sequence (P08510 whole entry): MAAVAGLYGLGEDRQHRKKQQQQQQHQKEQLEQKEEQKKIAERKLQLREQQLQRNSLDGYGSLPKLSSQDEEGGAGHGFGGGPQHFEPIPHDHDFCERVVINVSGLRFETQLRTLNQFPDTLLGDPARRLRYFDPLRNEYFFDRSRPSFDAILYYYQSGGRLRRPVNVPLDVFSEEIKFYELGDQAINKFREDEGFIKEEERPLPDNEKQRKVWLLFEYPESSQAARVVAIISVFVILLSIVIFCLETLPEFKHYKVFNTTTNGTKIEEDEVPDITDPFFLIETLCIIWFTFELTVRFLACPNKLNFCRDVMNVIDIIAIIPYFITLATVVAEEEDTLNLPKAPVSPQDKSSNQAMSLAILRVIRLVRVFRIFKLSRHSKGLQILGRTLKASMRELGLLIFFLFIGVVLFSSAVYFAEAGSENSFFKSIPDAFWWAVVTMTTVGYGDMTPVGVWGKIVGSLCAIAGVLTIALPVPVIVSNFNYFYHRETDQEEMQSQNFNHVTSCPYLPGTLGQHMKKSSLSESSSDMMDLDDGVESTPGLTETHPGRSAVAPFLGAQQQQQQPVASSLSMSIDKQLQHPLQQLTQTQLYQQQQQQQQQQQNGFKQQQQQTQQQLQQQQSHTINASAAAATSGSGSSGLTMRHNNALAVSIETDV

For `CC[C@H](C)[C@@H]1NC(=O)[C@@H](NC(=O)[C@H](C)N)CSSC[C@@H](C(=O)N[C@@H](Cc2c[nH]cn2)C(=O)O)NC(=O)[C@H](CC(C)C)NC(=O)CNC(=O)[C@@H]2CSSC[C@@H]3NC(=O)[C@H](CO)NC(=O)CNC(=O)CNC(=O)[C@H](CCCCN)NC(=O)[C@H](CCCCN)NC(=O)[C@H](C(C)C)NC(=O)[C@H](Cc4c[nH]cn4)NC(=O)[C@H](CCCCN)NC(=O)[C@H](CSSC[C@H](NC(=O)[C@H](CC(N)=O)NC(=O)[C@H]([C@@H](C)CC)NC(=O)[C@H](CCCNC(=N)N)NC(=O)[C@H](Cc4ccc(O)cc4)NC(=O)[C@H](CCCCN)NC(=O)[C@H](CCC(N)=O)NC(=O)[C@H](CO)NC(=O)[C@H](CC(N)=O)NC(=O)[C@H](CCCCN)NC3=O)C(=O)N[C@@H](C)C(=O)N[C@@H](CCCCN)C(=O)N[C@@H]([C@@H](C)O)C(=O)N2)NC(=O)[C@H]([C@@H](C)O)NC(=O)CNC(=O)[C@H]([C@@H](C)O)NC(=O)[C@@H]2CCCN2C(=O)[C@H](Cc2ccccc2)NC(=O)[C@H](CCCNC(=N)N)NC(=O)[C@H](CC(=O)O)NC1=O` [BcsTx1] (H-ACIDRFPTGTCKHVKKGGSCKNSQKYRINCAKTCGLCH-OH; disulfide 2-37, 11-30, 20-34), the inhibition at 0.5 µM (rKV1.1; 0.5 µM, n ≥ 3, read-out: inhibition of rKV1.1 current) was 44%, the IC50 (rKV1.1; [14]) was 405 ± 20.6 nM and the inhibition at 0.5 µM (hKV1.3 [1]; 0.5 µM, n ≥ 3, read-out: inhibition of KV1.3 current) was 100%. It also gave an IC50 (hKV1.3 [1]; [15]) of 74.1 ± 20.2 nM, an inhibition at 0.5 µM (Shaker IR; 0.5 µM, n ≥ 3, read-out: inhibition of Shaker IR current) of 64% and an IC50 (Shaker IR; [14]) of 248 ± 96 nM. The “selectivity among KV channels (in words)” value ([2]; 0.5 µM, 12 KV isoforms) was “selectively blocks KV1.x channels”, the “potency class on KV channels (in words)” value ([2]; summary of IC50 values, compared with BgK and type 2 toxins) was “within the nanomolar range” and the “affinity/potency order among KV channels (in words)” value ([2]; summary of the electrophysiological characterization) was “high affinity for rKv1.2 over rKv1.6, hKv1.3, Shaker IR and rKv1.1”. It also gave an inhibition at 0.5 µM (rKV1.2; 0.5 µM, n ≥ 3, read-out: inhibition of rKV1.2 current) of 100%, an IC50 (rKV1.2; [15]) of 0.03 ± 0.006 nM and an inhibition at 0.5 µM (rKV1.6; 0.5 µM, n ≥ 3, read-out: inhibition of rKV1.6 current) of 88%. It also gave an IC50 (rKV1.6; [14]) of 1.31 ± 0.2 nM.
For “ShK: type 1 sea anemone toxin from Stichodactyla helianthus (Swiss-Prot P29187)”, the “activity against KV3.2 (in words)” value (KV3.2 channels) is given as “shows activity against KV3.2 channels”, the “block of intermediate conductance K (Ca) channels (in words)” value [3] is given as “block intermediate conductance K (Ca) channels” and the “block of KV1.1-4 and KV1.6 (in words)” value (KV1.1-4 and KV1.6) is given as “blocks KV1.1-4 and KV1.6”. For the same compound, the “block of KV1.3 (in words)” value (KV1.3 channels) was “block KV1.3 channels”.
“BcsTx2 (from UniProt C0HJC3 1-37) (peptide)” showed a percent inhibition of the channel's current by 3 µM BcsTx2, two-electrode voltage clamp on X. laevis oocytes (hKV1.3 [4]) of 100%, a percent inhibition of the channel's current by 3 µM BcsTx2, two-electrode voltage clamp on X. laevis oocytes (rKV1.1 (rat) [5]) of 96% and a percent inhibition of the channel's current by 3 µM BcsTx2, two-electrode voltage clamp on X. laevis oocytes (rKV1.2 (rat) [6]) of 100%. For the same compound, the percent inhibition of the channel's current by 3 µM BcsTx2, two-electrode voltage clamp on X. laevis oocytes (Shaker IR (insect) [7]) was 94%, the percent inhibition of the channel's current by 3 µM BcsTx2, two-electrode voltage clamp on X. laevis oocytes (rKV1.6 (rat) [8]) was 98% and the IC50 of block of the channel's K+ current, two-electrode voltage clamp on X. laevis oocytes, concentration-response curve (hKV1.3 [9]) was 13.1 nM. For the same compound, the IC50 of block of the channel's K+ current, two-electrode voltage clamp on X. laevis oocytes, concentration-response curve (rKV1.1 (rat) [10]) was 14.4 nM, the IC50 of block of the channel's K+ current, two-electrode voltage clamp on X. laevis oocytes, concentration-response curve (rKV1.2 (rat) [11]) was 80.4 nM and the IC50 of block of the channel's K+ current, two-electrode voltage clamp on X. laevis oocytes, concentration-response curve (Shaker IR (insect) [12]) was 49.1 nM. The IC50 of block of the channel's K+ current, two-electrode voltage clamp on X. laevis oocytes, concentration-response curve (rKV1.6 (rat) [13]) was 7.76 nM.
